Values of other authors, collected in patent publication US7105170B2, “Latent human tuberculosis model, diagnostic antigens, and methods of use” (The United States of America as represented by the …, priority 2001, dated 2006).

System: M. tuberculosis bacilli
Details: non-replicating persistent lower oxygen state (NRP2)

Row | Structure (SMILES) | alterations in drug susceptibility
1 | Cc1ncc([N+](=O)[O-])n1CCO [metronidazole] | sensitive
2 | O=C(O)c1cn(C2CC2)c2cc(N3CCNCC3)c(F)cc2c1=O [ciprofloxicin] | resistant
